Experimental findings from patent US11976083B2, “Inhibitors of peptidylarginine deiminases” (Gilead Sciences, Inc., priority 2020, dated 2024) are described below.

Structures are written as SMILES.

T1 sequence (Q9UM07 2-663): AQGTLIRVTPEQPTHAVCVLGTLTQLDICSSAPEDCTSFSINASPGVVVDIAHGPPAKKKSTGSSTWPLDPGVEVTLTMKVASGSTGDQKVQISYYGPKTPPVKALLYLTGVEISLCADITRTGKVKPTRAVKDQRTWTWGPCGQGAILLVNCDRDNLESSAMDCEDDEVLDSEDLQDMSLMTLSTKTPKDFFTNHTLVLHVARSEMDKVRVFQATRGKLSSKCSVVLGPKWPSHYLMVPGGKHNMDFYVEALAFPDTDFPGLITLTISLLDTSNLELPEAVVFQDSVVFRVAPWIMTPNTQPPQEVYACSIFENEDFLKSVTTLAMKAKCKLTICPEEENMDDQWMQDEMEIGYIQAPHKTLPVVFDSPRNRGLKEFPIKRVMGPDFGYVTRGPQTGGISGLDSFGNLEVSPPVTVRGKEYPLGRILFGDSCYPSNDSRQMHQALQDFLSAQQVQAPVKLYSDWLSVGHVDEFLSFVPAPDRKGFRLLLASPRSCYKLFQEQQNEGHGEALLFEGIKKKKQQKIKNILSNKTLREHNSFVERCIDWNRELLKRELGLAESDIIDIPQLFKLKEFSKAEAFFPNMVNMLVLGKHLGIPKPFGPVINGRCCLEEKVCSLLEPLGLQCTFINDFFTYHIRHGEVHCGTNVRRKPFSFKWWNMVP

This assay has as its target T1, human PAD4 (Homo sapiens, UniProt Q9UM07).
T1 construct: human PAD4 (NM_012387), A2-P663, was PCR amplified; His-SUMO (N, cleaved yes); made in house; host or cells: E. coli BL21(DE3)
Kind of assay: In vitro PAD4 BAEE biochemical assay. The conditions noted are these: BAEE substrate 3 mM, 5 nM PAD4, 2 mM calcium chloride; geometric mean of multiple experiments. The essentials: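 Ammonia produced by BAEE deimination (3 mM substrate, 2 h, 25 °C) was read as fluorescent isoindole after o-phthalaldehyde/DTT derivatization, ex 405 nm/em 535 nm. Human PAD4 at 5 nM final, 2 mM calcium, pH 7.6 MOPS; compound preincubated 30 min. IC50s, normalized to BB-Cl-Amidine and DMSO controls, were geometric-mean averaged.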
Consider `COc1cc(C(=O)N2[C@H]3CC[C@@H]2[C@H](N)C3)cc2nc(-c3cc4ccc5nc4n3CCCCC[C@@H](OC)C(C)(C)C(=O)N[C@@H]5C)n(C)c12` [Example 219, (7~{R},11~{R})-17-[5-[(1~{R},2~{R},4~{S})-2-amino-7-azabicyclo[2.2.1]heptane-7-carbonyl]-7-methoxy-1-methyl-benzimidazol-2-yl]-7-methoxy-8,8,11-trimethyl-1,10,19-triazatricyclo[10.5.2.0^{15,18}]nonadeca-12(19),13,15(18),16-tetraen-9-one], for which the IC50 stood at 72 nM.

In the case of `COc1cc(C(=O)N2[C@H]3CC[C@@H]2[C@H](N)C3)cc2nc(-c3cc4ccc5nc4n3CCCCC[C@H](OC)C(C)(C)C(=O)N[C@@H]5C)n(C)c12` [Example 220, (7~{S),11~{R})-17-[5-[(1~{R},2~{R},4~{S})-2-amino-7-azabicyclo[2.2.1]heptane-7-carbonyl]-7-methoxy-1-methyl-benzimidazol-2-yl]-7-methoxy-8,8,11-trimethyl-1,10,19-triazatricyclo[10.5.2.0^{15,18}]nonadeca-12(19),13,15(18),16-tetraen-9-one], the IC50 was 49 nM.

Regarding `COc1cc(C(=O)N2[C@H]3CC[C@@H]2[C@H](N)C3)cc2nc(-c3cc4ccc5cc4n3CCCCCCC3(CC3)C(=O)N[C@@H]5C)n(C)c12` [Example 221, (11~{R})-17-[5-[(1~{R},2~{R},4~{S})-2-amino-7-azabicyclo[2.2.1]heptane-7-carbonyl]-7-methoxy-1-methyl-benzimidazol-2-yl]-11-methyl-spiro[1,10-diazatricyclo[10.5.2.0^{15,18}]nonadeca-12(19),13,15(18),16-tetraene-8,1′-cyclopropane]-9-one], the IC50 was determined as 32 nM.

Consider `COc1cc(C(=O)N2[C@H]3CC[C@@H]2[C@H](N)C3)cc2nc(-c3cc4ccc5cc4n3CCCCCOC(C)(C)C(=O)N[C@@H]5C)n(C)c12` [Example 222, (11~{R})-17-[5-[(1~{R},2~{R},4~{S})-2-amino-7-azabicyclo[2.2.1]heptane-7-carbonyl]-7-methoxy-1-methyl-benzimidazol-2-yl]-8,8,11-trimethyl-7-oxa-1,10-diazatricyclo[10.5.2.0^{15,18}]nonadeca-12(19),13,15(18),16-tetraen-9-one], for which the IC50 turned out to be 64 nM.

With `COc1cc(C(=O)N2[C@H]3CC[C@@H]2[C@H](N)C3)cc2nc(-c3cc4ccc5cc4n3CCCCCCC3(CC3)C(=O)N[C@@H]5C)n(C3CC3)c12` [Example 225, (11~{R})-17-[5-[(1~{R},2~{R},4~{S})-2-amino-7-azabicyclo[2.2.1]heptane-7-carbonyl]-1-cyclopropyl-7-methoxy-benzimidazol-2-yl]-11-methyl-spiro[1,10-diazatricyclo[10.5.2.0^{15,18}]nonadeca-12(19),13,15(18),16-tetraene-8,1′-cyclopropane]-9-one], the IC50 worked out at 73 nM.

Regarding `COc1cc(C(=O)N2[C@H]3CC[C@@H]2[C@H](N)C3)cc2nc(-c3cc4ccc5nc4n3C[C@H]3C[C@@H]3CCCCC(=O)N[C@@H]5C)n(C)c12` [Example 226, (3~{S},5~{S},12~{R})-18-[5-[(1~{R},2~{R},4~{S})-2-amino-7-azabicyclo[2.2.1]heptane-7-carbonyl]-7-methoxy-1-methyl-benzimidazol-2-yl]-12-methyl-1,11,20-triazatetracyclo[11.5.2.0^{3,5}.0^{16,19}] icosa-13(20),14,16(19),17-tetraen-10-one], the IC50 is 24 nM.

In the case of `COc1cc(C(=O)N2[C@H]3CC[C@@H]2[C@H](N)C3)cc2nc(-c3cc4ccc5nc4n3CCCCCCNC(=O)CC5C)n(C)c12` (stereo partly shown) [Example 227, 17-[5-[(1˜{R},2˜{R},4˜{S})-2-amino-7-azabicyclo[2.2.1]heptane-7-carbonyl]-7-methoxy-1-methyl-benzimidazol-2-yl]-11-methyl-1,8,19-triazatricyclo[10.5.2.0^{15,18}]nonadeca-12(19),13,15(18),16-tetraen-9-one], the IC50 turned out to be 154 nM.

Turning to `C[C@H]1NC(=O)CCCCCCCn2c(-c3nc4cc(C(=O)N5CCC[C@@H](N)C5)ccn4c3C3CC3)cc3ccc1nc32` [Example 228, (11~{R})-17-[7-[(3~{R})-3-aminopiperidine-1-carbonyl]-3-cyclopropyl-imidazo[1,2-a]pyridin-2-yl]-11-methyl-1,10,19-triazatricyclo[10.5.2.0^{15,18}]nonadeca-12(19),13,15(18),16-tetraen-9-one], the IC50 came to 131 nM.

Turning to `COc1cc(C(=O)N2CCC[C@@H](N)C2)cc2nc(-c3cc4ccc5nc4n3CCCCCCCC(=O)N[C@@H]5C)n(C3CC3)c12` [Example 229, (11~{R})-17-[5-[(3~{R})-3-aminopiperidine-1-carbonyl]-1-cyclopropyl-7-methoxy-benzimidazol-2-yl]-11-methyl-1,10,19-triazatricyclo[10.5.2.0^{15,18}]nonadeca-12(19),13,15(18),16-tetraen-9-one], the IC50 was 72 nM.

For the compound `COc1cc(C(=O)N2CCC[C@@H](N)C2)cc2nc(-c3cc4ccc5nc4n3CCCCCCC(C)(C)C(=O)N[C@@H]5C)n(C3CC3)c12` [Example 230, (11~{R})-17-[5-[(3~{R})-3-aminopiperidine-1-carbonyl]-1-cyclopropyl-7-methoxy-benzimidazol-2-yl]-8,8,11-trimethyl-1,10,19-triazatricyclo[10.5.2.0^{15,18}]nonadeca-12(19),13,15(18),16-tetraen-9-one], the IC50 is 84 nM.

`COc1cc(C(=O)N2CCC[C@@H](N)C2)cc2nc(-c3cc4ccc5nc4n3CCCCCCC(=O)N[C@@H]5C)n(C3CC3)c12` [Example 231, (10~{R})-16-[5-[(3~{R})-3-aminopiperidine-1-carbonyl]-1-cyclopropyl-7-methoxy-benzimidazol-2-yl]-10-methyl-1,9,18-triazatricyclo[9.5.2.0^{14,17}]octadeca-11(18),12,14(17),15-tetraen-8-one]: the half-maximal inhibitory concentration (IC50) was found to be 84 nM.

As to `COc1cc(C(=O)N2CCC[C@@H](N)C2)cc2nc(-c3cc4ccc5nc4n3CCCCCCCC(=O)NC5)n(C)c12` [Example 232, 17-[5-[(3~{R})-3-aminopiperidine-1-carbonyl]-7-methoxy-1-methyl-benzimidazol-2-yl]-1,10,19-triazatricyclo[10.5.2.0^{15,18}]nonadeca-12(19),13,15(18),16-tetraen-9-one], the IC50 came to 549 nM.

As to `COc1cc(C(=O)N2CCC[C@@H](N)C2)cc2nc(-c3cc4ccc5nc4n3CCCCCCC3(CC3)C(=O)N[C@@H]5C)n(C)c12` [Example 233, (11~{R})-17-[5-[(3~{R})-3-aminopiperidine-1-carbonyl]-7-methoxy-1-methyl-benzimidazol-2-yl]-11-methyl-spiro[1,10,19-triazatricyclo[10.5.2.0^{15,18}]nonadeca-12(19),13,15(18),16-tetraene-8,1′-cyclopropane]-9-one], the IC50 is 82 nM.

`COc1cc(C(=O)N2CCC[C@@H](N)C2)cc2nc(-c3cc4ccc5nc4n3CCCCCCCC(=O)N(C)C5)n(C)c12` [Example 234, 17-[5-[(3˜{R})-3-aminopiperidine-1-carbonyl]-7-methoxy-1-methyl-benzimidazol-2-yl]-10-methyl-1,10,19-triazatricyclo[10.5.2.0^{15,18}]nonadeca-12(19),13,15(18),16-tetraen-9-one]: the IC50 was 622 nM.

As for `CCc1c(-c2cc3ccc4nc3n2CCCCCCC(C)(C)C(=O)N[C@@H]4C)nn2cc(C(=O)N3CCC[C@@H](N)C3)ccc12` [Example 237, (11~{R})-17-[6-[(3~{R})-3-aminopiperidine-1-carbonyl]-3-ethyl-pyrazolo[1,5-a]pyridin-2-yl]-8,8,11-trimethyl-1,10,19-triazatricyclo[10.5.2.0^{15,18}]nonadeca-12(19),13,15(18),16-tetraen-9-one], the IC50 is 62 nM.

Regarding `COc1cc(C(=O)N2CCC[C@@H](N)C2)cc2nc(-c3cc4ccc5nc4n3CCCCCCCC(=O)NC5C(F)F)n(C)c12` (stereo partly shown) [Example 238, 17-[5-[(3~{R})-3-aminopiperidine-1-carbonyl]-7-methoxy-1-methyl-benzimidazol-2-yl]-11-(difluoromethyl)-1,10,19-triazatricyclo[10.5.2.0^{15,18}]nonadeca-12(19),13,15(18),16-tetraen-9-one], the IC50 worked out at 87 nM.

On to `COc1cc(C(=O)N2CC[C@@H](OC)[C@@H](N)C2)cc2nc(-c3cc4ccc5nc4n3Cc3ccccc3C/C=C/CC(=O)N[C@@H]5C)n(C)c12` [Example 239, (10~{E},15~{R})-21-[5-[(3~{S},4~{R})-3-amino-4-methoxy-piperidine-1-carbonyl]-7-methoxy-1-methyl-benzimidazol-2-yl]-15-methyl-1,14,23-triazatetracyclo[14.5.2.0^{3,8}.0^{19,22}] tricosa-3(8),4,6,10,16,18,20,22-octaen-13-one], for which the IC50 was found to be 583 nM.

In the case of `COc1cc(C(=O)N2CC[C@@H](OC)[C@@H](N)C2)cc2nc(-c3cc4ccc5nc4n3CCCCCc3nccnc3C(=O)N[C@@H]5C)n(C)c12` [Example 240, (2~{R})-17-[5-[(3~{S),4~{R})-3-amino-4-methoxy-piperidine-1-carbonyl]-7-methoxy-1-methyl-benzimidazol-2-yl]-2-methyl-3,6,9,16,22-pentazatetracyclo[14.5.2.0^{5,10}.0^{19, 23}]tricosa-1(21),5(10),6,8,17,19,22-heptaen-4-one], the IC50 is 137 nM.

Turning to `COc1cc(C(=O)N[C@H]2CNCC[C@@H]2F)cc2nc(-c3cc4ccc5nc4n3CCCCCc3nccnc3C(=O)N[C@@H]5C)n(C)c12` [Example 241, ~{N}-[(3~{S},4~{S})-4-fluoro-3-piperidyl]-7-methoxy-1-methyl-2-[(2~{R})-2-methyl-4-oxo-3,6,9,16,22-pentazatetracyclo[14.5.2.0^{5,10}.0^{19, 23}]tricosa-1(21),5(10),6,8,17,19,22-heptaen-17-yl]benzimidazole-5-carboxamide], the IC50 is 82 nM.
